In data set [1] the target is T1, mitochondrial polymerase gamma (Homo sapiens, UniProt P54098).
T1 sequence (P54098 1-1239): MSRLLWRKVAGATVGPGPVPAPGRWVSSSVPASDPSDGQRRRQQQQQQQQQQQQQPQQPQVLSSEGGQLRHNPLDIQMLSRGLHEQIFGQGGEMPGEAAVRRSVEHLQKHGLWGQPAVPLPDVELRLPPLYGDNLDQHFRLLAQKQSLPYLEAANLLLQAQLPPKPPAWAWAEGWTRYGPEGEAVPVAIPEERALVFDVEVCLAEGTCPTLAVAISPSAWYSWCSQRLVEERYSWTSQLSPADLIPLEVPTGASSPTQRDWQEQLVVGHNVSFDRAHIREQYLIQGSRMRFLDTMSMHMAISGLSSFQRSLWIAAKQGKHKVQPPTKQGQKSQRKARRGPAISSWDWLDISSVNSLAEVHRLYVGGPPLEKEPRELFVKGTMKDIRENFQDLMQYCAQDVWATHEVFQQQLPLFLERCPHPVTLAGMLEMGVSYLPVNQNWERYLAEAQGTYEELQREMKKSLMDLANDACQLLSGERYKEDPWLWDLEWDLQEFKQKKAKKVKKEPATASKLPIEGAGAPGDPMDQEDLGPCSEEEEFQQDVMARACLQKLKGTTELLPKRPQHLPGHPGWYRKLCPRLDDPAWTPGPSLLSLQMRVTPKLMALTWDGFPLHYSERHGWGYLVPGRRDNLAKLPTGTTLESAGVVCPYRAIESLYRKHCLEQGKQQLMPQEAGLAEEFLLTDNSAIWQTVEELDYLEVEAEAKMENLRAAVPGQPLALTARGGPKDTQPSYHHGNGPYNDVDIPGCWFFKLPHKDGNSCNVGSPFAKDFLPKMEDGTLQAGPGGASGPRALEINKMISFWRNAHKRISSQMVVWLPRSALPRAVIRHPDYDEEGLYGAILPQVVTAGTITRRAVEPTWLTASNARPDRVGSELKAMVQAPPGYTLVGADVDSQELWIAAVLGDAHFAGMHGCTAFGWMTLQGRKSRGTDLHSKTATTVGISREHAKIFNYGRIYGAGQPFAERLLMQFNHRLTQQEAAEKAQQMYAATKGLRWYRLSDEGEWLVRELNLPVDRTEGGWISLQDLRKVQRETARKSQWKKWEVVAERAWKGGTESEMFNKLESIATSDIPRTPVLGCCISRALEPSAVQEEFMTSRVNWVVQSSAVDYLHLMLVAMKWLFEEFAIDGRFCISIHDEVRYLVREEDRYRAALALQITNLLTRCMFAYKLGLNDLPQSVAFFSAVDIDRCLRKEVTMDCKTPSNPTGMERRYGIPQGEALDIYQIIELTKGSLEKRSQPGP
To be noted: cited from earlier work.

Data set [2] deals with T1, mitochondrial polymerase gamma. To be noted: exonuclease; from Johnson et al.; cited from earlier work.
In data set [3] the target is T2, wild type HIV-1 reverse transcriptase (Human immunodeficiency virus type 1 group M subtype B, UniProt P04585).
T2 construct: a mixture of 100 nM HIV-1 reverse transcriptase and 300 nM primer/template
Kind of data set: Kinetics of nucleotide incorporation by wild type HIV-1 reverse transcriptase. It counts as biochemical. Conditions: RT WT. The method, then:
Continued research on the guanosine prodrug approach for making D4G a viable anti-HIV agent has yielded a number of new findings. In the present example, enzyme kinetics for the incorporation of the active metabolites of guanosine prodrugs with wild type HIV-1 reverse transcriptase was determined. In this experiment, a mixture of 100 nM HIV-1 reverse transcriptase and 300 nM primer/template in which the correct base incorporation is a guanine nucleotide was rapidly mixed with nucleotide in the presence of 50 mM Tris, 50 mM NaCl and 10 mM MgCl2 for a set amount of time and then the reaction was stopped by the addition 300 mM of EDTA.

In data set [4] the target is T2, wild type HIV-1 reverse transcriptase. To be noted: from Ray and Anderson or Furman et al., cited from earlier work.
Data set [5] deals with T1, mitochondrial polymerase gamma. Kind of data set: Nucleotide incorporation by mitochondrial polymerase gamma into an elongating DNA strand. Format: biochemical. To be noted: mitochondrial polymerase gamma, incorporation.
The target is the same in data set [6]. Kind of data set: Exonuclease removal from chain terminated primer template by mitochondrial polymerase gamma. Format: biochemical.
[7] abbreviates: mitochondrial polymerase gamma, from Johnson et al.
Where [8] appears, read: Table 4, primer/template DNA/DNA.
Setting [9] is: Table 4, primer/template DNA/RNA.

Molecules are shown by their SMILES. Read-outs that look alike come from different tables or passages of the source.

As to `Cc1cn([C@H]2C=C[C@@H](COP(=O)(O)OP(=O)(O)OP(=O)(O)O)O2)c(=O)[nH]c1=O` [D4TTP], in data set [1], the “Toxicity Index” value is 3,120. Besides, in data set [1] (setting [7]), the Discrimination is recorded as 7.4, the Kd was 45 ± 7.5 nM, the kpol is 0.24 ± 0.01 s⁻¹ and the “kpol/Kd” value was 5.4 ± 0.93 µM⁻¹ s⁻¹. The kexo in data set [2] is 0.0004 s⁻¹.

As for `Nc1nc2c(ncn2[C@H]2C[C@H](O)[C@@H](COP(=O)(O)OP(=O)(O)OP(=O)(O)O)O2)c(=O)[nH]1` [DGTP], the Efficiency in data set [3] (setting [8]) was 1.7 ± 0.3 s^−1μM^−1; in data set [3] (setting [9]), 3.1 ± 0.6 s^−1μM^−1. For the same compound, the Kd was 14 ± 2 µM in data set [3] (setting [8]); 11 ± 2 µM in data set [3] (setting [9]); 14 ± 2 µM in data set [4] (Table 3, substrate DNA/DNA); 11 ± 2 µM in data set [4] (Table 3, substrate DNA/RNA); 1400 ± 300 nM in data set [5]. In addition, the kpol is 24 ± 1 s⁻¹ in data set [3] (setting [8]); 35 ± 2 s⁻¹ in data set [3] (setting [9]); 24 ± 1 s⁻¹ in data set [4] (Table 3, substrate DNA/DNA); 35 ± 2 s⁻¹ in data set [4] (Table 3, substrate DNA/RNA); 175 ± 10 s⁻¹ in data set [5]. Further, the “Selectivity = (kpol/Kd)dGTP/(kpol/Kd)analog” value in data set [4] (Table 3, substrate DNA/DNA) is given as 1; in data set [4] (Table 3, substrate DNA/RNA), 1. In addition, the “kpol/Kd” value in data set [5] amounted to 130 ± 30 µM⁻¹ s⁻¹. In data set [6], the kexo amounted to 0.019 ± 0.0019 s⁻¹.

For orientation: Kd means the equilibrium constant for the complex coming apart.

The values above are taken from patent publication US6900315B2, “2-amino-9H-purin-9-yl compounds and methods for inhibiting/treating HIV infections and AIDS related symptoms” (Yale University, priority 2001, dated 2005).
